In assay [1] the target is T1, Avi-KRAS G12D (1-169) GppNHp/RAF1 RBD-3xFLAG (52-151) (Homo sapiens, UniProt P01116, G12D).
T1 construct: Avi-KRAS G12D (1-169)
In words: Raf1-KRAS G12D-GppNHP disruption HTRF assay (Biological Example 1). It counts as binding. The following applies: KRAS G12D, GppNHp-loaded; Table 11. In outline: (§1)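 Percent activity versus DMSO (100%) was derived from HTRF signal after KRAS–RAF1 RBD protein mix was incubated 1 h at room temperature with shaking and detection reagents were added for a further 1 h.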

For assay [2], the target named is T2, Avi-KRAS G12R (1-169) GppNHp/RAF1 RBD-3xFLAG (52-151) (Homo sapiens, UniProt P01116, G12R).
T2 construct: Avi-KRAS G12R (1-169)
T2 sequence (P01116 1-169 isoform P01116-2 G12R): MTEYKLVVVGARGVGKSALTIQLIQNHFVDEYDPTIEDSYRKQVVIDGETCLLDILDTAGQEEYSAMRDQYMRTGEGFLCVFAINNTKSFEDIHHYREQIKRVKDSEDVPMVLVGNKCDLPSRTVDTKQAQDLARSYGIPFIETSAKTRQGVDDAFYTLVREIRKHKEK
In words: Raf1-KRAS G12R-GppNHP disruption HTRF assay (Biological Example 1). It counts as binding. The following applies: KRAS G12R, GppNHp-loaded; Table 11. A digest of the protocol: as §1
Background: TR-FRET usually uses a lanthanide donor and a delayed reading to cut background.

For assay [3], the target named is T3, Avi-KRAS G12V (1-169) GppNHp/RAF1 RBD-3xFLAG (52-151) (Homo sapiens, UniProt P01116, G12V).
T3 construct: Avi-KRAS G12V (1-169)
T3 sequence (P01116 1-169 isoform P01116-2 G12V): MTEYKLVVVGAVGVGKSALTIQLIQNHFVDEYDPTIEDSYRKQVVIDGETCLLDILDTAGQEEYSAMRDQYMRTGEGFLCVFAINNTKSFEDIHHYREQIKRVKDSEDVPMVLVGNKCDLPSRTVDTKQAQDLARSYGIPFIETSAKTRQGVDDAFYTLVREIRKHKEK
In words: Raf1-KRAS G12V-GppNHP disruption HTRF assay (Biological Example 1). Conditions: KRAS G12V, GppNHp-loaded; Table 11. It counts as binding. In outline: as §1

Assay [4] has as its target T4, Avi-KRAS WT (1-169) GppNHp/RAF1 RBD-3xFLAG (52-151) (Homo sapiens, UniProt P01116).
T4 construct: Avi-KRAS WT (1-169)
Description: Raf1-KRAS WT-GppNHP disruption HTRF assay (Biological Example 1). It counts as binding. Conditions: KRAS WT, GppNHp-loaded; Table 11. A digest of the protocol: as §1

Another assay concerns GP2d cells (KRAS G12D). Description: Cell-based pERK HTRF assay in GP2d cell (Biological Example 2). The following applies: GP2d, GP2d (KRAS G12D) cells, pERK HTRF. A digest of the protocol:
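Phospho-ERK in lysed cells was detected by HTRF using Eu cryptate and d2 antibodies, read between 4 and 24 h at room temperature. Prior to lysis, KRAS G12D GP2d cells, seeded the day before in DMEM with 10% FBS, were exposed to compounds for 60 min. Compounds were tested as 9-point half-log curves from 1 μM or 100 nM top, with 0.25% DMSO.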

The subject of the next assay is SW620 cells (KRAS G12V). In words: Cell-based pERK HTRF assay in SW620 cell (Biological Example 4). Conditions: Homo sapiens, SW-620, SW620 (KRAS G12V) cells, pERK HTRF. In outline: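 Read-out: HTRF pERK signal (excitation 320 nm, emission 615 nm) from lysates of SW620 cells after 4 h compound exposure. Dose range was 9 points, half-log steps from 1 μM, in 0.25% DMSO; antibody incubation ran 4–24 h at room temperature.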

Bounds are passed on as bounds.

T1 sequence (P01116 1-169 isoform P01116-2 G12D): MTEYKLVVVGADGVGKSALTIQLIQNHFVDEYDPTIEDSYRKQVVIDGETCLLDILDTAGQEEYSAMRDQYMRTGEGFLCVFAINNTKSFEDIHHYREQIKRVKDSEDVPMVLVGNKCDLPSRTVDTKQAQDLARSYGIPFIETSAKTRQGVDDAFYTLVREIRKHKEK
T4 sequence (P01116 1-169 isoform P01116-2): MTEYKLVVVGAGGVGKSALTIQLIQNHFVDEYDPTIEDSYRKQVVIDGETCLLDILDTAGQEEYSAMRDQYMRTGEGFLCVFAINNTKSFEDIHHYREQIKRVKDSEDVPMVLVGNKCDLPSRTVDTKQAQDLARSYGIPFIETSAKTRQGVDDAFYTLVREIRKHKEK

In general, IC50 refers to the concentration needed to halve the response being measured. With `CC1(O)COCCN(c2nc(OC[C@@]34CCCN3C[C@H](F)C4)nc3c(F)c(-c4ccc(F)c5sc(N)c(C#N)c45)c(C(F)(F)F)cc23)C1` (stereo partly drawn) [Compound 244], the IC50 was 100 to 1000 nM in assay [1]; 100 to 1000 nM in assay [2]; 100 to 1000 nM in assay [3]; 100 to 1000 nM in assay [4]; less than 100 nM with GP2d cells (KRAS G12D); less than 100 nM with SW620 cells (KRAS G12V).
For the compound `C[C@H]1C[C@H](O)CCN1c1nc(OC[C@@]23CCCN2C[C@H](F)C3)nc2c(F)c(-c3ccc(F)c4sc(N)c(C#N)c34)c(C(F)(F)F)cc12` [Compound 246], the IC50 in assay [1] was 100 to 1000 nM; in assay [2], 100 to 1000 nM; in assay [3] it was 100 to 1000 nM; in assay [4], 100 to 1000 nM; with GP2d cells (KRAS G12D), less than 100 nM; with SW620 cells (KRAS G12V) it was less than 100 nM.
On to `CC(=O)N1C[C@@H](N(C)c2nc(OC[C@@]34CCCN3C[C@H](F)C4)nc3c(F)c(-c4ccc(F)c5sc(N)c(C#N)c45)c(C(F)(F)F)cc23)C[C@H]1CO` [Compound 247], for which the IC50 in assay [1] was 100 to 1000 nM; in assay [2], 100 to 1000 nM; in assay [3], 100 to 1000 nM; in assay [4], 100 to 1000 nM; with GP2d cells (KRAS G12D) it was less than 100 nM; in the assay with SW620 cells (KRAS G12V) it was 100 to 1000 nM.
For the compound `N#Cc1c(N)sc2c(F)ccc(-c3c(C(F)(F)F)cc4c(N5CCCC6(C5)NC(=O)NC6=O)nc(OC[C@@]56CCCN5C[C@H](F)C6)nc4c3F)c12` (stereo partly drawn) [Compound 248], the IC50 (in assay [1]; in assay [2]; in assay [3]; in assay [4]; with GP2d cells (KRAS G12D); in the assay with SW620 cells (KRAS G12V)) was 100 to 1000 nM throughout.
Consider `N#Cc1c(N)sc2c(F)ccc(-c3c(C(F)(F)F)cc4c(N5CCNC(=O)CC5)nc(OC[C@@]56CCCN5C[C@H](F)C6)nc4c3F)c12` [Compound 251], for which the IC50 in assay [1] is 100 to 1000 nM; in assay [2], 100 to 1000 nM; in assay [3], 100 to 1000 nM; in assay [4] it was 100 to 1000 nM; with GP2d cells (KRAS G12D) it was less than 100 nM; in the assay with SW620 cells (KRAS G12V), 100 to 1000 nM.
As for `C[C@H]1[C@@H](N(C)c2nc(OC[C@@]34CCCN3C[C@H](F)C4)nc3c(F)c(-c4ccc(F)c5sc(N)c(C#N)c45)c(C(F)(F)F)cc23)CCN1C(=O)CC#N` [Compound 252], the IC50 in assay [1] was 1000 to 10000 nM; in assay [2] it was 1000 to 10000 nM; in assay [3], 1000 to 10000 nM; in assay [4] it was 1000 to 10000 nM; in the assay with GP2d cells (KRAS G12D) it was 100 to 1000 nM; with SW620 cells (KRAS G12V) it was 100 to 1000 nM.
As to `CC(=O)N(C)CCN(C)c1nc(OC[C@@]23CCCN2C[C@H](F)C3)nc2c(F)c(-c3ccc(F)c4sc(N)c(C#N)c34)c(C(F)(F)F)cc12` [Compound 255], the IC50 in assay [1] was 100 to 1000 nM; in assay [2], 100 to 1000 nM; in assay [3], 100 to 1000 nM; in assay [4], 100 to 1000 nM; with GP2d cells (KRAS G12D), less than 100 nM; with SW620 cells (KRAS G12V), less than 100 nM.
For the compound `CN(C)C(=O)c1cc2n(n1)CCCN(c1nc(OC[C@@]34CCCN3C[C@H](F)C4)nc3c(F)c(-c4ccc(F)c5sc(N)c(C#N)c45)c(C(F)(F)F)cc13)C2` [Compound 256], the IC50 in assay [1] is less than 100 nM; in assay [2] it was 100 to 1000 nM; in assay [3] it was 100 to 1000 nM; in assay [4], 100 to 1000 nM; in the assay with GP2d cells (KRAS G12D), less than 100 nM; in the assay on SW620 cells (KRAS G12V), less than 100 nM.
`CN1CCN(c2nc(OC[C@@]34CCCN3C[C@H](F)C4)nc3c(F)c(-c4ccc(F)c5sc(N)c(C#N)c45)c(C(F)(F)F)cc23)CC1=O` [Compound 257]: the IC50 in assay [1] is 100 to 1000 nM; in assay [2] it was 1000 to 10000 nM; in assay [3], 1000 to 10000 nM; in assay [4], 100 to 1000 nM; in the assay with GP2d cells (KRAS G12D), less than 100 nM; in the assay on SW620 cells (KRAS G12V), less than 100 nM.
Take `N#Cc1c(N)sc2c(F)ccc(-c3c(C(F)(F)F)cc4c(N5C[C@@H]6C[C@H]5CO6)nc(OC[C@@]56CCCN5C[C@H](F)C6)nc4c3F)c12` [Compound 259]: the IC50 in assay [1] is 100 to 1000 nM; in assay [2], 100 to 1000 nM; in assay [3] it was 1000 to 10000 nM; in assay [4] it was 100 to 1000 nM; in the assay on GP2d cells (KRAS G12D) it was less than 100 nM; in the assay with SW620 cells (KRAS G12V) it was less than 100 nM.

The record behind these values is patent US20260042764A1, “COMPOSITIONS AND METHODS FOR INHIBITION OF KRAS” (TheRas, Inc., priority 2022, published 2026).
